{"source": "ChEMBL document CHEMBL2016443", "about": "“From ApoA1 upregulation to BET family bromodomain inhibition: discovery of I-BET151” (Bioorg Med Chem Lett, 2012)", "key": {"Hepatocyte [1]": {"test_system": "Hepatocyte", "assay": "Bioactivation in rat hepatocytes assessed as glutathione trapping", "type": "cell-based"}, "Rattus norvegicus [2]": {"organism": "Rattus norvegicus", "assay": "Dose normalized AUC (0 to infinity ) in CD rat", "type": "ADME, organism-based", "settings": "in vivo"}, "Salmonella typhimurium": {"test_system": "Salmonella typhimurium", "assay": "Mutagenic activity in Salmonella typhimurium by Ames assay", "type": "toxicity, organism-based", "settings": "salmonella enterica subsp. enterica serovar typhimurium"}, "HepG2": {"test_system": "HepG2", "assay": "Upregulation of ApoA1 expression in human HepG2 cells assessed as concentration required to increase 70% of luciferase activity after 18 hrs by luciferase reporter gene assay", "type": "functional"}, "[3]": {"assay": "Volume of distribution at steady state in CD rat", "type": "ADME, organism-based", "settings": "in vivo, read-out: Vdss"}, "Mus musculus [4]": {"test_system": "Mus musculus", "assay": "Antiinflammatory activity in LPS-stimulated acute inflammation BALB/c mouse model assessed as inhibition of plasma MCP-1 level at 10 mg/kg, po administered 2 hrs before LPS challenge", "type": "functional"}, "Hepatocyte [5]": {"test_system": "Hepatocyte", "assay": "Bioactivation in human hepatocytes assessed as compound epoxidation", "type": "cell-based"}, "[6]": {"assay": "Oral bioavailability in CD rat", "type": "ADME, organism-based", "settings": "in vivo"}, "Mus musculus [7]": {"test_system": "Mus musculus", "assay": "Antiinflammatory activity in LPS-stimulated acute inflammation BALB/c mouse model assessed as inhibition of plasma PAI-1 level at 10 mg/kg, po administered 2 hrs before LPS challenge", "type": "functional"}, "Rattus norvegicus [8]": {"organism": "Rattus norvegicus", "assay": "Half life in CD rat", "type": "ADME, organism-based", "settings": "in vivo"}, "THP-1": {"test_system": "THP-1", "assay": "Antiinflammatory activity in human THP1 cells", "type": "functional, cell-based"}, "Hepatocyte [9]": {"test_system": "Hepatocyte", "assay": "Bioactivation in human hepatocytes assessed as glutathione trapping", "type": "cell-based"}, "Hepatocyte [10]": {"test_system": "Hepatocyte", "assay": "Bioactivation in rat hepatocytes assessed as compound epoxidation", "type": "cell-based"}, "Mus musculus [11]": {"test_system": "Mus musculus", "assay": "Antiinflammatory activity in LPS-stimulated acute inflammation BALB/c mouse model assessed as inhibition of plasma TNF-alpha level at 10 mg/kg, po administered 2 hrs before LPS challenge", "type": "functional"}, "PBMC [12]": {"test_system": "PBMC", "assay": "Inhibition of LPS-stimulated IL-6 production in human PBMC", "type": "functional, cell-based"}, "Cytochrome P450 2C9": {"biological_target": "Cytochrome P450 2C9 (Homo sapiens, UniProt P11712)", "sequence (P11712 whole entry)": "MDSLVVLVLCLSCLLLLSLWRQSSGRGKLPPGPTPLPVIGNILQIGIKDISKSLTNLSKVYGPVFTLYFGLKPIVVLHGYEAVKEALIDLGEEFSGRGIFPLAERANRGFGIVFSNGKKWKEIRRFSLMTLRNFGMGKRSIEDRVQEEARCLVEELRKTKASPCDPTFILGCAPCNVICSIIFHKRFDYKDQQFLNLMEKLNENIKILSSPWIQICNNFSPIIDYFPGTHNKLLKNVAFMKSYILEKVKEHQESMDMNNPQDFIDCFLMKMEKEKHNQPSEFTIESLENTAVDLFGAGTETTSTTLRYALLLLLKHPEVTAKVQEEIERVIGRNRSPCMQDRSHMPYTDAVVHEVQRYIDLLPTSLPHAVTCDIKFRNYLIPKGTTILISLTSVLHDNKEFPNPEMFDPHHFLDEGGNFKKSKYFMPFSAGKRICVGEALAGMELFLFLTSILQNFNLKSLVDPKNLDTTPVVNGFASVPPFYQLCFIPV", "assay": "Inhibition of CYP2C9", "type": "ADME"}, "PBMC [13]": {"test_system": "PBMC", "assay": "Inhibition of LPS-stimulated TNFalpha production in human PBMC", "type": "functional, cell-based"}, "Mus musculus [14]": {"test_system": "Mus musculus", "assay": "Antiinflammatory activity in LPS-stimulated acute inflammation BALB/c mouse model assessed as inhibition of plasma IL-6 level at 10 mg/kg, po administered 2 hrs before LPS challenge", "type": "functional"}}, "note": "Activity calls are given as the source filed them. The calls are words filed in the database; no cut-off is given here.", "data": [{"smiles": "COc1cc2c(cc1-c1c(C)noc1C)ncc1[nH]c(=O)n([C@H](C)c3ccccn3)c12", "values": [{"measurement": "Drug metabolism", "setting": "Hepatocyte [1]", "result": "Not Active"}, {"measurement": "AUC/dose", "setting": "Rattus norvegicus [2]", "result": 38, "unit": "kg·min/L"}, {"measurement": "Activity", "setting": "Salmonella typhimurium", "result": "Non-toxic"}, {"measurement": "EC170", "setting": "HepG2", "result": 0.09, "unit": "µM"}, {"measurement": "Vd", "setting": "[3]", "result": 2.1, "unit": "L/kg"}, {"measurement": "inhibition in vivo at 10 mg/kg", "setting": "Mus musculus [4]", "result": 47, "unit": "%"}, {"measurement": "Drug metabolism", "setting": "Hepatocyte [5]", "result": "Not Active"}, {"measurement": "bioavailability", "setting": "[6]", "result": 66, "unit": "%"}, {"measurement": "inhibition in vivo at 10 mg/kg", "setting": "Mus musculus [7]", "result": 35, "unit": "%"}, {"measurement": "t1/2", "setting": "Rattus norvegicus [8]", "result": 1.7, "unit": "h"}, {"measurement": "Activity", "setting": "THP-1", "result": "Active"}, {"measurement": "Drug metabolism", "setting": "Hepatocyte [9]", "result": "Not Active"}, {"measurement": "Drug metabolism", "setting": "Hepatocyte [10]", "result": "Not Active"}, {"measurement": "inhibition in vivo at 10 mg/kg", "setting": "Mus musculus [11]", "result": 65, "unit": "%"}, {"measurement": "inhibition", "setting": "PBMC [12]", "result": "Dose-dependent effect"}, {"measurement": "IC50", "setting": "Cytochrome P450 2C9", "result": 9.9, "unit": "µM"}, {"measurement": "inhibition", "setting": "PBMC [13]", "result": "Dose-dependent effect"}, {"measurement": "inhibition in vivo at 10 mg/kg", "setting": "Mus musculus [14]", "result": 75, "unit": "%"}]}]}
